Like-named read-outs stand apart in the source and are kept apart here.
Tests used:
[1] = tested on: T47D pAKT (S473), PI3Kα H1047R mutation present; assay: HTRF pAKT-T47D;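 also: assay medium was RPMI with 10% FBS and 0.2 units/ml bovine insulin, without phenol red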
Protocol: Homogenous Time-Resolved Fluorescence (HTRF)—pAKT-T47D
Compounds were assayed using homogeneous time-resolved fluorescence (HTRF).
Gibco RPMI 1640 Medium, no phenol red; Gibco RPMI 1640 Medium; Gibco Trypsin-EDTA (0.5%), no phenol red; Gibco DPBS; Trypan blue solution 0.4% (Corning); Avantor Seradigm Premium Grade Fetal Bovine Serum (FBS); Greiner 784080-384 well TC treated white plates; pAKT (Ser473) HTRF; Gibco Insulin, human recombinant, zinc solution; Gibco Recovery Cell Culture Freezing Medium; Countess II FL Automated Cell Counter (ThermoFisher); Countess II Slides (ThermoFisher); Microscope; and PHERAstar FSX Microplate Reader (BMG LABTECH, Inc.).
The scinamic cell line ID was T47D.1, the HTRF detection was pAKT (S473), a PI3Kα H1047R mutation was present, the seeding density was 5000, the timepoint was 1 hour, and the medium used was RPMI+10% FBS (no phenol red)+0.2 units/ml bovine insulin.
• The cell density was not permitted to reach 100% confluence. The cells were split 1:5 when they reached ˜80% confluence. • Cells were split twice a week (Mon and Fri). • Cells over passage 18 were not used (˜2 months of maintenance). • Antibiotics were not used for tissue culture maintenance or assays. […] Protocol Day1
The procedure was as follows: • 1. Prepared ARP: • a. Stamped 12.5 nL from 10 μmM source plate to destination plate using Echo. Sealed plate immediately and froze at −20° C. if it was not used on the same day. • b. If a frozen ARP was used, the plate was thawed and spun at 1000 rpm×1 min. • 2. Preparation of cells (adherent): • a. Aspirated media from cells. Washed cells with sterile 1XPBS. Aspirated PBS and added appropriate amount of Trypsin. • b. Once cells were fully trypsinized, added appropriate media to resuspend cells. Transferred cells to a 15 mL or 50 mL conical tube. • c. Counted cells on the Countess II Cell Counter. • 3. Plating of cells: • a. Prepared cells at appropriate plating density. Dispensed 12 μL of diluted cells per well of a Greiner 784080-384 well TC treated white plate using a Multidrop Combi to columns 1-23. Added 12 uL of appropriate phenol free media only to column 24. • b. Placed plates in 37° C. tissue culture incubator for appropriate treatment time (refer to “Assay” table). • 4. Prepared HTRF Lysis Buffer • a. Calculate the amount of HTRF lysis buffer master mix needed to perform the desired experiments plus any extra dead volume required for dispensing (4 μL required per well). […] Add 4 uL Lysis buffer master mix to all wells with sample or DMSO. Centrifuge the plates for 1 minute at 1000 rpm. • c. Incubate at room temperature for 30 minutes. • 5. Prepared HTRF Antibody • a.

[2] = molecular target: T1, PI3Kα H1047R protein (p110-α H1047R complexed with truncated p85-α) (Homo sapiens, UniProt P42336, H1047R); assay: Surface Plasmon Resonance (SPR) binding, wortmannin-blocked protein; settings: Biacore 8K, ATP site blocked with 1 μM wortmannin, 25° C.
T1 construct: The protein contained a full-length p110-α subunit harboring the H1047R mutation
Protocol: Surface Plasmon Resonance (SPR)
SPR experiments were performed on a Biacore 8K instrument. A biotinylated recombinant PI3Kα H1047R protein was used in this study. The protein contained a full-length p110-α subunit harboring the H1047R mutation with an N-terminal AviTag, complexed with a truncated p85-α subunit (amino acid residues 322-694). The protein was first incubated with 1 μM wortmannin for 30 min at RT to covalently block the ATP binding site, then immobilized onto a streptavidin sensor chip by flowing the protein through the sensor chip at typically 20 μg/mL concentration and 2 μL/min flow rate for 1200 seconds. Compound binding affinities were measured in the multi-cycle kinetics mode, at 90 μL/min flow rate with 90 seconds association time and 240 seconds dissociation time. The running buffer contained 50 mM Tris, pH 7.5, 150 mM NaCl, 0.01% Brij35, 1 mM DTT, 1 mM MgCl2, 0.05% Tween-20 and 2% DMSO. Temperature was maintained at 25° C. during experiments.

[3] = Homo sapiens, T47D, 1 h, read-out: T47D pAKT IC50 (nM), T47D.1 cells, pAKT (S473) HTRF, 1 hour

T1 sequence (P42336 whole entry H1047R, the tested form may be a part): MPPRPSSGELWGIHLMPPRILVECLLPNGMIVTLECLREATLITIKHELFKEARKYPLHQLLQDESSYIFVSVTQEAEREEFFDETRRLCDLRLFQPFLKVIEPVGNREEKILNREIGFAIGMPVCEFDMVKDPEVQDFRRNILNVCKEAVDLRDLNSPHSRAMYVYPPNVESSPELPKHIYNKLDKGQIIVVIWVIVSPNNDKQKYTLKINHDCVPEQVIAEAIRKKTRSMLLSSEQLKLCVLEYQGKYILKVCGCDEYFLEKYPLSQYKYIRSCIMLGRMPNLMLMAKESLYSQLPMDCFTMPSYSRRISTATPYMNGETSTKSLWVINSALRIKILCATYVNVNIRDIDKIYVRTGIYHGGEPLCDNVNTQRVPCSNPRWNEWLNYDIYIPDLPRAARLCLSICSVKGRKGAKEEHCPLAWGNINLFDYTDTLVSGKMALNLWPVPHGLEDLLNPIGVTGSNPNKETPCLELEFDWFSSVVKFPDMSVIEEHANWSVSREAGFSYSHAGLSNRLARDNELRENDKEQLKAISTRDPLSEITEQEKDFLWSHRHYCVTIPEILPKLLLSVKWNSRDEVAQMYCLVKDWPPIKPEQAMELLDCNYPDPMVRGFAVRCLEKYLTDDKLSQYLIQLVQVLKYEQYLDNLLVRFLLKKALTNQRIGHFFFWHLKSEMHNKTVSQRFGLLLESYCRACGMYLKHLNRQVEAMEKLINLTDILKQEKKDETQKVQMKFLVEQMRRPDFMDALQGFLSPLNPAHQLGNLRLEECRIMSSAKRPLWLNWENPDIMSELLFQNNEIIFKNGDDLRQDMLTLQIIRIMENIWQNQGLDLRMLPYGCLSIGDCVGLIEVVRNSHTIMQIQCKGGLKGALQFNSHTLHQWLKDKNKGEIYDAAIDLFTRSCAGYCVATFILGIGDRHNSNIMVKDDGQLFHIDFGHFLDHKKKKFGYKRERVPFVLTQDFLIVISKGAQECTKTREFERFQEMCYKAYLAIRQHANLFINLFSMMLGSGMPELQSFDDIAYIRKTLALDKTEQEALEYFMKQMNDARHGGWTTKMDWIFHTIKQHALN
T1 sequence (P27986 322-694 partner limits assumed): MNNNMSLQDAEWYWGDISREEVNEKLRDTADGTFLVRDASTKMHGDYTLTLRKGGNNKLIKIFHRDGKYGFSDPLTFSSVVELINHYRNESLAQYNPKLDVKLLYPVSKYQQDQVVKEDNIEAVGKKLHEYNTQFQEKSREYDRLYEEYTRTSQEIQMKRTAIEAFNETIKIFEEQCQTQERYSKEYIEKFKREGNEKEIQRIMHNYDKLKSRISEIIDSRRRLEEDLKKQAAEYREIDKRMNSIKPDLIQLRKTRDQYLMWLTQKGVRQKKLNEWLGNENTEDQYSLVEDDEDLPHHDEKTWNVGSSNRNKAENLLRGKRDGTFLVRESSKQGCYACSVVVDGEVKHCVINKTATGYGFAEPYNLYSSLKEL

Row | Structure (SMILES) | IC50 [1, 3] | Kd [2] | IC50 ([1]; read-out: T47D pAKT IC50, T47D.1 cells, pAKT (S473) HTRF, 1 hour)
1 | Cc1c([C@@H](C)NC(=O)Nc2ccc(S(N)(=O)=O)cc2)oc2ccc(F)cc12 [Compound 12, (R)-4-(3-(1-(5-fluoro-3-methylbenzofuran-2-yl)ethyl)ureido) benzenesulfonamide] | – | ≥ 500 nM | 1000 to 5000 nM
2 | CCS(=O)(=O)c1ccc(NC(=O)N[C@H](C)c2oc3ccc(F)cc3c2C)cc1 [Compound 13, (R)-1-(4-(ethylsulfonyl)phenyl)-3-(1-(5-fluoro-3-methylbenzofuran-2-yl)ethyl)urea] | > 5000 nM | ≥ 500 nM | –
3 | Cc1c([C@@H](NC(=O)Nc2cccc(C(=O)N(C)C)c2)C(C)C)oc2ccc(F)cc12 [Compound 22, (S)-3-(3-(1-(5-fluoro-3-methylbenzofuran-2-yl)-2-methylpropyl)ureido)-N,N-dimethylbenzamide] | 1000 to 5000 nM | < 100 nM | –
4 | Cc1c([C@@H](NC(=O)Nc2cncc(S(C)(=O)=O)c2)C(C)C)oc2ccc(F)cc12 [Compound 27, (S)-1-(1-(5-fluoro-3-methylbenzofuran-2-yl)-2-methylpropyl)-3-(5-(methylsulfonyl)pyridin-3-yl)urea] | < 1000 nM | < 100 nM | –
5 | Cc1c([C@@H](NC(=O)Nc2ccc3c(c2)CNC3=O)C(C)C)oc2ccc(F)cc12 [Compound 33, (S)-1-(1-(5-fluoro-3-methylbenzofuran-2-yl)-2-methylpropyl)-3-(1-oxoisoindolin-5-yl)urea] | < 1000 nM | < 100 nM | –
6 | Cc1c([C@@H](NC(=O)Nc2ccc3c(c2)C(=O)NC3)C(C)C)oc2ccc(F)cc12 [Compound 34, (S)-1-(1-(5-fluoro-3-methylbenzofuran-2-yl)-2-methylpropyl)-3-(3-oxoisoindolin-5-yl)urea] | 1000 to 5000 nM | < 100 nM | –
7 | Cc1c([C@@H](NC(=O)Nc2cncc(C#N)c2)C(C)C)oc2ccc(F)cc12 [Compound 35, (S)-1-(5-cyanopyridin-3-yl)-3-(1-(5-fluoro-3-methylbenzofuran-2-yl)-2-methylpropyl)urea] | 1000 to 5000 nM | 250 to 500 nM | –
8 | Cc1c([C@@H](NC(=O)Nc2ccc(N)nc2)C(C)C)oc2ccc(F)cc12 [Compound 38, (S)-1-(6-aminopyridin-3-yl)-3-(1-(5-fluoro-3-methylbenzofuran-2-yl)-2-methylpropyl)urea] | < 1000 nM | 100 to 250 nM | –
9 | Cc1c([C@@H](NC(=O)Nc2ccnc(C(N)=O)c2)C(C)C)oc2ccc(F)cc12 [Compound 40, (S)-4-(3-(1-(5-fluoro-3-methylbenzofuran-2-yl)-2-methylpropyl)ureido)picolinamide] | 1000 to 5000 nM | 250 to 500 nM | –
10 | Cc1c([C@@H](NC(=O)N[C@@H]2CCCS(=O)(=O)C2)C(C)C)oc2ccc(F)cc12 [Compound 43, 1-((R)-1,1-dioxidotetrahydro-2H-thiopyran-3-yl)-3-((S)-1-(5-fluoro-3-methylbenzofuran-2-yl)-2-methylpropyl)urea] | 1000 to 5000 nM | 100 to 250 nM | –
11 | Cc1c([C@@H](NC(=O)Nc2cn[nH]c2)C(C)C)oc2ccc(F)cc12 [Compound 47, (S)-1-(1-(5-fluoro-3-methylbenzofuran-2-yl)-2-methylpropyl)-3-(1H-pyrazol-4-yl)urea] | 1000 to 5000 nM | 100 to 250 nM | –
12 | Cc1c([C@@H](NC(=O)Nc2cccc(C(N)=O)c2)C(C)C)oc2c(F)cc(F)cc12 [Compound 52, (S)-3-(3-(1-(5,7-difluoro-3-methylbenzofuran-2-yl)-2-methylpropyl)ureido)benzamide] | < 1000 nM | < 100 nM | –
13 | Cc1c([C@@H](NC(=O)Nc2ccc(C(=O)N3CC(F)C3)nc2)C(C)C)oc2ccc(F)cc12 [Compound 64, (S)-1-(1-(5-fluoro-3-methylbenzofuran-2-yl)-2-methylpropyl)-3-(6-(3-fluoroazetidine-1-carbonyl)pyridin-3-yl)urea] | 1000 to 5000 nM | < 100 nM | –

Continued, in another order:

Row | IC50 [1, 3] | Kd [2] | Structure (SMILES) | IC50 ([1]; read-out: T47D pAKT IC50, T47D.1 cells, pAKT (S473) HTRF, 1 hour)
14 | < 1000 nM | < 100 nM | Cc1c(C(NC(=O)Nc2cnc(N3CCC3)nc2)C(F)(F)F)oc2ccc(F)cc12 (single isomer, unassigned) [Compound 69, 1-(2-(azetidin-1-yl)pyrimidin-5-yl)-3-(2,2,2-trifluoro-1-(5-fluoro-3-methylbenzofuran-2-yl)ethyl)urea] | –
15 | 1000 to 5000 nM | 250 to 500 nM | Cc1c([C@@H](NC(=O)Nc2cccnc2)C(C)C)oc2ccc(F)cc12 [Compound 1, (S)-1-(1-(5-fluoro-3-methylbenzofuran-2-yl)-2-methylpropyl)-3-(pyridin-3-yl)urea] | –
16 | > 5000 nM | ≥ 500 nM | Cc1c([C@H](C)NC(=O)Nc2cccc(C(N)=O)c2)oc2ccc(F)cc12 [Compound 3, (S)-3-(3-(1-(5-fluoro-3-methylbenzofuran-2-yl)ethyl)ureido) benzamide] | –
17 | 1000 to 5000 nM | 250 to 500 nM | CNC(=O)c1cccc(NC(=O)N[C@H](c2oc3ccc(F)cc3c2C)C(C)C)c1 [Compound 23, (S)-3-(3-(1-(5-fluoro-3-methylbenzofuran-2-yl)-2-methylpropyl)ureido)-N-methylbenzamide] | –
18 | < 1000 nM | < 100 nM | Cc1c([C@@H](NC(=O)Nc2cncc(C(N)=O)c2)C(C)C)oc2ccc(F)cc12 [Compound 24, (S)-5-(3-(1-(5-fluoro-3-methylbenzofuran-2-yl)-2-methylpropyl)ureido) nicotinamide] | –
19 | > 5000 nM | 250 to 500 nM | Cc1c([C@@H](NC(=O)N[C@H]2CCC[C@H](C(N)=O)C2)C(C)C)oc2ccc(F)cc12 [Compound 31, (1S,3S)-3-(3-((S)-1-(5-fluoro-3-methylbenzofuran-2-yl)-2-methylpropyl)ureido) cyclohexane-1-carboxamide] | –
20 | > 5000 nM | ≥ 500 nM | Cc1c([C@@H](NC(=O)Nc2cccnc2)C2CC2)oc2ccc(F)cc12 [Compound 37, (S)-1-(cyclopropyl(5-fluoro-3-methylbenzofuran-2-yl)methyl)-3-(pyridin-3-yl)urea] | –
21 | < 1000 nM | < 100 nM | Cc1c([C@@H](NC(=O)Nc2cnc(N)nc2)C(C)C)oc2ccc(F)cc12 [Compound 39, (S)-1-(2-aminopyrimidin-5-yl)-3-(1-(5-fluoro-3-methylbenzofuran-2-yl)-2-methylpropyl)urea] | –
22 | < 1000 nM | < 100 nM | Cc1c([C@@H](NC(=O)Nc2ccc(C(N)=O)nc2)C(C)C)oc2ccc(F)cc12 [Compound 41, (S)-5-(3-(1-(5-fluoro-3-methylbenzofuran-2-yl)-2-methylpropyl)ureido)picolinamide] | –
23 | 1000 to 5000 nM | 250 to 500 nM | Cc1c([C@@H](NC(=O)N[C@H]2CCCS(=O)(=O)C2)C(C)C)oc2ccc(F)cc12 [Compound 44, 1-((S)-1,1-dioxidotetrahydro-2H-thiopyran-3-yl)-3-((S)-1-(5-fluoro-3-methylbenzofuran-2-yl)-2-methylpropyl)urea] | –
24 | 1000 to 5000 nM | 100 to 250 nM | Cc1c([C@@H](NC(=O)Nc2cncc(C(N)=O)c2)C2CC2)oc2ccc(F)cc12 [Compound 45, (S)-5-(3-(cyclopropyl(5-fluoro-3-methylbenzofuran-2-yl)methyl)ureido)nicotinamide] | –
25 | 1000 to 5000 nM | 100 to 250 nM | Cc1c([C@@H](NC(=O)Nc2ccc(S(N)(=O)=O)nc2)C2CC2)oc2ccc(F)cc12 [Compound 48, (S)-5-(3-(cyclopropyl(5-fluoro-3-methylbenzofuran-2-yl)methyl)ureido)pyridine-2-sulfonamide] | –
26 | < 1000 nM | < 100 nM | Cc1c([C@@H](NC(=O)Nc2cncc(C(=O)N(C)C)c2)C(C)C)oc2ccc(F)cc12 [Compound 56, (S)-5-(3-(1-(5-fluoro-3-methylbenzofuran-2-yl)-2-methylpropyl)ureido)-N,N-dimethylnicotinamide] | –
27 | < 1000 nM | 100 to 250 nM | Cc1c([C@@H](NC(=O)Nc2cnc(C(=O)N(C)C)nc2)C(C)C)oc2ccc(F)cc12 [Compound 59, (S)-5-(3-(1-(5-fluoro-3-methylbenzofuran-2-yl)-2-methylpropyl)ureido)-N,N-dimethylpyrimidine-2-carboxamide] | –
28 | 1000 to 5000 nM | 100 to 250 nM | CNC(=O)c1cncc(NC(=O)N[C@H](c2oc3ccc(F)cc3c2C)C(C)C)c1 [Compound 60, (S)-5-(3-(1-(5-fluoro-3-methylbenzofuran-2-yl)-2-methylpropyl)ureido)-N-methylnicotinamide] | –
29 | 1000 to 5000 nM | 100 to 250 nM | Cc1c([C@@H](NC(=O)Nc2cncc(C(=O)N3CCNCC3)c2)C(C)C)oc2ccc(F)cc12 [Compound 61, (S)-1-(1-(5-fluoro-3-methylbenzofuran-2-yl)-2-methylpropyl)-3-(5-(piperazine-1-carbonyl)pyridin-3-yl)urea] | –
30 | > 5000 nM | < 100 nM | Cc1c([C@@H](NC(=O)Nc2cncc(C(=O)O)c2)C(C)C)oc2ccc(F)cc12 [Compound 62, (S)-5-(3-(1-(5-fluoro-3-methylbenzofuran-2-yl)-2-methylpropyl)ureido)nicotinic acid] | –
31 | < 1000 nM | < 100 nM | Cc1c([C@@H](NC(=O)Nc2cncc(C(=O)N3CCC3)c2)C(C)C)oc2ccc(F)cc12 [Compound 63, (S)-1-(5-(azetidine-1-carbonyl)pyridin-3-yl)-3-(1-(5-fluoro-3-methylbenzofuran-2-yl)-2-methylpropyl)urea] | –
